In publication PMC12118337, “Development of a Peptide Inhibitor Targeting the C‐SH2 Domain of the SHP2 Phosphatase” (Chembiochem, 2025):
Non-standard residues stand in square brackets, D forms with d. Residues, ends and D or L forms follow the SMILES beside them. *: point of attachment. 5FAM = O=C1OC2(c3ccc(O)cc3Oc3cc(O)ccc32)c2ccc(C(=O)*)cc21; F2Pmp = N[C@@H](Cc1ccc(C(F)(F)P(=O)(O)O)cc1)C(=O)O; Pmp = N[C@@H](Cc1ccc(CP(=O)(O)O)cc1)C(=O)O; pY = N[C@@H](Cc1ccc(OP(=O)(O)O)cc1)C(=O)O; X1 = O=C(O)C(C(=O)O)*

How the values were obtained:
[1] = target: T1, SHP2 C‐SH2 domain (Homo sapiens, UniProt Q06124); assay: Fluorescence polarization (FP) binding assay, SHP2 C-SH2 domain; settings: 100 nM FAM-labelled peptide; for Kd: read-out: K D ± SEM, C‐SH2 (FP)
T1 construct: SHP2 N-SH2 domain (1–105), C-SH2 domain (106–220), PTP domain (224–541) and; His6 (pETM22 vector) (N, cleaved yes); made in house; host or cells: E. coli BL21(DE3)
T1 sequence (Q06124 106-220): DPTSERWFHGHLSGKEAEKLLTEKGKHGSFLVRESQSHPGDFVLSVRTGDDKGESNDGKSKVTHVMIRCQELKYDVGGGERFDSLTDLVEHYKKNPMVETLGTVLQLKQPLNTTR
Procedure: (§1) buffer and stored in 5 mL binding buffer at 4°C. His-tagged 3C protease (0.5 mg; EMBL) was added to the pooled eluted fractions and dialysed using Spectra Por Dialysis Tubing (MWCO 6-8 kDa, 23 mm; Spectrum Labs) in 1 L of binding buffer at 4°C for 3 hours, then overnight in fresh buffer. A new column was prepared by loading 2 mL Ni-NTA Agarose (Invitrogen) as a 50% slurry in EtOH. The column was washed with 10 mL H2O to remove the EtOH and equilibrated with 10 mL binding buffer. The protein/3C protease mixture was loaded onto the column and incubated for 1 hour at 4°C on a rocker. The flow through containing the protein was collected, the column was washed with 100 mL binding buffer and the 3C protease was eluted with 5 mL elution buffer. Protein purification was monitored by SDS-PAGE using NuPAGE 4-12% Bis-Tris Protein Gels (Invitrogen) run in MOPS buffer (50 mM MOPS, 50 mM Tris-HCl pH 7.7, 1 mM EDTA, 0.1% SDS) followed by Coomassie staining using Coomassie Brilliant Blue (Roth). The purified protein was dialysed into the final storage buffer (50 mM HEPES pH 7.5, 150 mM NaCl, 2 mM DTT, 20% glycerol). Aliquots were prepared and stored at -80°C until required. […]
(§2) 4. Fluorescence polarization
(§3) Fluorescence polarization (FP) was used to measure the binding of FAM-labelled peptides to the SHP2 C-SH2, SHP2 N-SH2, SHP2 PTP, CSK SH2 or Src SH2 domains. Each peptide was added to increasing concentrations of SHP2 C-SH2, SHP2 N-SH2, SHP2 PTP, CSK SH2 or Src SH2 protein in FP buffer (50 mM HEPES pH 7.5, 150 mM NaCl, 1 mM EDTA, 0.05% Tween 20) to give a final peptide […]
(§4) concentration of 100 nM in a final volume of 200 µL. For baseline subtraction, each peptide was added to FP buffer, instead of protein, with a final peptide concentration of 100 nM in a final volume of 200 µL. Samples were mixed gently then 3 x 60 µL of each sample was transferred into triplicate wells in a 96-well plate (OptiPlate-96 F Black; PerkinElmer). The FP was immediately measured on a Synergy H1 Microplate Reader (BioTek) with the excitation and emission monitored at 485 nm and 528 nm, respectively, over 30 minutes. FP values were automatically calculated by the Gen5 3.03 (BioTek) software associated with the microplate reader. Data were analysed in Excel 2016 by subtracting baseline values from FP values at 10 minutes. Data were then further analysed in GraphPad Prism 6 by plotting the baseline subtracted FP values against the protein concentration and fitting the data to a variable slope model of non-linear regression to obtain the KD values. Data are from three independent experiments, each performed in technical triplicates.
(§5) 5. Isothermal titration calorimetry […]
(§6) Analysis Software (Malvern Panalytical). For the data analysis, a 1:1 binding stoichiometry between the Ac-ITSM(pTyr) and SH2 domain was assumed. ITC measurements were performed once.

[2] = target: T2, SHP2 N‐SH2 domain (Homo sapiens, UniProt Q06124); assay: Fluorescence polarization (FP) binding assay, SHP2 N-SH2 domain; settings: 100 nM FAM-labelled peptide; for Kd: increasing N-SH2 protein, 50 mM HEPES pH 7.5, 150 mM NaCl, 1 mM EDTA, 0.05% Tween 20, FP at 10 min, three independent experiments in technical triplicates, read-out: K D ± SEM, N‐SH2 (FP)
T2 construct: SHP2 N-SH2 domain (1–105), C-SH2 domain (106–220), PTP domain (224–541) and; His6 (pETM22 vector) (N, cleaved yes); made in house; host or cells: E. coli BL21(DE3)
T2 sequence (Q06124 1-105): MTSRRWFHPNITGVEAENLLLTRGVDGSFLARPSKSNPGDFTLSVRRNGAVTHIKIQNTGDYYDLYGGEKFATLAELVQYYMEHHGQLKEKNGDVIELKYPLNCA
Procedure: as §1, §2, §3, §4, §5, §6

[3] = increasing C-SH2 protein, 50 mM HEPES pH 7.5, 150 mM NaCl, 1 mM EDTA, 0.05% Tween 20, FP at 10 min, three independent experiments in technical triplicates

SMILES	binding to the C‐SH2 domain, in words [1]	Kd [1, 3] [nM]	binding to the N‐SH2 domain, in words [2]	Kd [2] [nM]	K D ± SEM, C‐SH2 (FP) [1, 3]
CC[C@H](C)[C@H](NC(=O)[C@@H](NC(=O)[C@H](C)NC(=O)[C@H](Cc1ccc(C(F)(F)P(=O)(O)O)cc1)NC(=O)[C@H](CCC(=O)O)NC(=O)[C@@H](NC(=O)[C@H](CCC(N)=O)NC(=O)[C@H](CCC(=O)O)NC(=O)c1ccc2c(c1)C(=O)OC21c2ccc(O)cc2Oc2cc(O)ccc21)[C@@H](C)O)[C@@H](C)O)C(=O)N[C@H](C(=O)N[C@@H](Cc1ccccc1)C(=O)N1CCC[C@H]1C(N)=O)C(C)C [FAM‐ITSM(F2Pmp)] (5FAM-EQTE[F2Pmp]ATIVFP-NH2)	marked decrease in binding affinity	> 2000	slightly better binding than FAM‐ITSM(L‐OMT)	1390 ± 63	
CC[C@H](C)[C@H](NC(=O)[C@@H](NC(=O)[C@H](C)NC(=O)[C@H](Cc1ccc(OC(C(=O)O)C(=O)O)cc1)NC(=O)[C@H](CCC(=O)O)NC(=O)[C@@H](NC(=O)[C@H](CCC(N)=O)NC(=O)[C@H](CCC(=O)O)NC(=O)c1ccc2c(c1)C(=O)OC21c2ccc(O)cc2Oc2cc(O)ccc21)[C@@H](C)O)[C@@H](C)O)C(=O)N[C@H](C(=O)N[C@@H](Cc1ccccc1)C(=O)N1CCC[C@H]1C(N)=O)C(C)C [FAM‐ITSM(L‐OMT)] (5FAM-EQTEY(X1)ATIVFP-NH2)	retained binding	257 ± 8.3		1710 ± 105	
CC[C@H](C)[C@H](NC(=O)[C@@H](NC(=O)[C@H](C)NC(=O)[C@H](Cc1ccc(CP(=O)(O)O)cc1)NC(=O)[C@H](CCC(=O)O)NC(=O)[C@@H](NC(=O)[C@H](CCC(N)=O)NC(=O)[C@H](CCC(=O)O)NC(=O)c1ccc2c(c1)C(=O)OC21c2ccc(O)cc2Oc2cc(O)ccc21)[C@@H](C)O)[C@@H](C)O)C(=O)N[C@H](C(=O)N[C@@H](Cc1ccccc1)C(=O)N1CCC[C@H]1C(N)=O)C(C)C [FAM‐ITSM(Pmp)] (5FAM-EQTE[Pmp]ATIVFP-NH2)	marked decrease in binding affinity	> 2000	greatly reduced binding	> 10000	
CC[C@H](C)[C@H](NC(=O)[C@@H](NC(=O)[C@H](C)NC(=O)[C@H](Cc1ccc(OP(=O)(O)O)cc1)NC(=O)[C@H](CCC(=O)O)NC(=O)[C@@H](NC(=O)[C@H](CCC(N)=O)NC(=O)[C@H](CCC(=O)O)NC(=O)c1ccc2c(c1)C(=O)OC21c2ccc(O)cc2Oc2cc(O)ccc21)[C@@H](C)O)[C@@H](C)O)C(=O)N[C@H](C(=O)N[C@@H](Cc1ccccc1)C(=O)N1CCC[C@H]1C(N)=O)C(C)C [FAM‐ITSM(pTyr), reference compound] (5FAM-EQTE[pY]ATIVFP-NH2)		48.9		164 ± 19.5	
CC[C@H](C)[C@H](NC(=O)[C@@H](NC(=O)[C@H](C)NC(=O)[C@H](Cc1ccc(OP(=O)(O)O)cc1)NC(=O)[C@H](C)NC(=O)[C@@H](NC(=O)[C@H](CCC(N)=O)NC(=O)[C@H](CCC(=O)O)NC(=O)c1ccc2c(c1)C(=O)OC21c2ccc(O)cc2Oc2cc(O)ccc21)[C@@H](C)O)[C@@H](C)O)C(=O)N[C@H](C(=O)N[C@@H](Cc1ccccc1)C(=O)N1CCC[C@H]1C(N)=O)C(C)C [compound 4] (5FAM-EQTA[pY]ATIVFP-NH2)		95.1 ± 14.4		234 ± 17.6	
CC[C@H](C)[C@H](NC(=O)[C@H](C)NC(=O)[C@H](C)NC(=O)[C@H](Cc1ccc(OP(=O)(O)O)cc1)NC(=O)[C@H](CCC(=O)O)NC(=O)[C@@H](NC(=O)[C@H](CCC(N)=O)NC(=O)[C@H](CCC(=O)O)NC(=O)c1ccc2c(c1)C(=O)OC21c2ccc(O)cc2Oc2cc(O)ccc21)[C@@H](C)O)C(=O)N[C@H](C(=O)N[C@@H](Cc1ccccc1)C(=O)N1CCC[C@H]1C(N)=O)C(C)C [compound 5] (5FAM-EQTE[pY]AAIVFP-NH2)		126 ± 6.2		1140 ± 585	
CC(C)[C@H](NC(=O)[C@H](C)NC(=O)[C@@H](NC(=O)[C@H](C)NC(=O)[C@H](Cc1ccc(OP(=O)(O)O)cc1)NC(=O)[C@H](CCC(=O)O)NC(=O)[C@@H](NC(=O)[C@H](CCC(N)=O)NC(=O)[C@H](CCC(=O)O)NC(=O)c1ccc2c(c1)C(=O)OC21c2ccc(O)cc2Oc2cc(O)ccc21)[C@@H](C)O)[C@@H](C)O)C(=O)N[C@@H](Cc1ccccc1)C(=O)N1CCC[C@H]1C(N)=O [compound 6] (5FAM-EQTE[pY]ATAVFP-NH2)				> 10000	no binding
CC[C@H](C)[C@H](NC(=O)[C@@H](NC(=O)[C@H](C)NC(=O)[C@H](Cc1ccc(OP(=O)(O)O)cc1)NC(=O)[C@H](CCC(=O)O)NC(=O)[C@@H](NC(=O)[C@H](CCC(N)=O)NC(=O)[C@H](CCC(=O)O)NC(=O)c1ccc2c(c1)C(=O)OC21c2ccc(O)cc2Oc2cc(O)ccc21)[C@@H](C)O)[C@@H](C)O)C(=O)N[C@@H](C)C(=O)N[C@@H](Cc1ccccc1)C(=O)N1CCC[C@H]1C(N)=O [compound 7] (5FAM-EQTE[pY]ATIAFP-NH2)		> 2000		1080 ± 84	
CC[C@H](C)[C@H](NC(=O)[C@@H](NC(=O)[C@H](C)NC(=O)[C@H](Cc1ccc(OP(=O)(O)O)cc1)NC(=O)[C@H](CCC(=O)O)NC(=O)[C@@H](NC(=O)[C@H](CCC(N)=O)NC(=O)[C@H](CCC(=O)O)NC(=O)c1ccc2c(c1)C(=O)OC21c2ccc(O)cc2Oc2cc(O)ccc21)[C@@H](C)O)[C@@H](C)O)C(=O)N[C@H](C(=O)N[C@@H](C)C(=O)N1CCC[C@H]1C(N)=O)C(C)C [compound 8] (5FAM-EQTE[pY]ATIVAP-NH2)		185 ± 30.8		> 2000	
CC[C@H](C)[C@H](NC(=O)[C@@H](NC(=O)[C@H](C)NC(=O)[C@H](Cc1ccc(OP(=O)(O)O)cc1)NC(=O)[C@H](CCC(=O)O)NC(=O)[C@@H](NC(=O)[C@H](CCC(N)=O)NC(=O)c1ccc2c(c1)C(=O)OC21c2ccc(O)cc2Oc2cc(O)ccc21)[C@@H](C)O)[C@@H](C)O)C(=O)N[C@@H](CCCCN)C(=O)N[C@H](C(=O)N1CCC[C@H]1C(N)=O)[C@@H](C)CC [compound 12] (5FAM-QTE[pY]ATIKIP-NH2)		141 ± 6.2			
CC[C@H](C)[C@H](NC(=O)[C@@H](NC(=O)[C@H](C)NC(=O)[C@H](Cc1ccc(OP(=O)(O)O)cc1)NC(=O)[C@H](CCC(=O)O)NC(=O)[C@@H](NC(=O)[C@H](CCCCN)NC(=O)c1ccc2c(c1)C(=O)OC21c2ccc(O)cc2Oc2cc(O)ccc21)[C@@H](C)O)[C@@H](C)O)C(=O)N[C@@H](CCCCN)C(=O)N[C@@H](Cc1c[nH]cn1)C(=O)N1CCC[C@H]1C(N)=O [compound 19] (5FAM-KTE[pY]ATIKHP-NH2)		105 ± 3.6			
CC[C@H](C)[C@H](NC(=O)[C@@H](NC(=O)[C@H](C)NC(=O)[C@H](Cc1ccc(OP(=O)(O)O)cc1)NC(=O)[C@H](CCC(=O)O)NC(=O)[C@H](CCC(=O)O)NC(=O)[C@H](CCCCN)NC(=O)c1ccc2c(c1)C(=O)OC21c2ccc(O)cc2Oc2cc(O)ccc21)[C@@H](C)O)C(=O)N[C@@H](CCCCN)C(=O)N[C@@H](Cc1c[nH]cn1)C(=O)N1CCC[C@H]1C(N)=O [compound 20] (5FAM-KEE[pY]ATIKHP-NH2)		> 500			
